Patent US11801304B2, “Formulated and/or co-formulated liposome compositions containing TFGB antagonist prodrugs useful in the treatment of cancer and methods thereof” (Nammi Therapeutics, Inc., priority 2020, dated 2023)

Assay: Solubility in ethanol when preparing stock solution
Assay type: physicochemical
Conditions: stock solution 20 mg/ml prepared in acetonitrile instead
Description: In another experiment, a liposome comprising the TB4 prodrug (denoted LNP-TB4) was synthesized in the following manner. Briefly, In the first step, a lipid stock solution of POPC (1-palmitoyl-2-oleoyl-glycero-3-phosphocholine), CHOL, and DSPE-PEG, was prepared in ethanol (20 mg/ml) separately. […] The of lipid mixture of POPC, CHOL, TB4+Stearic Acid and DSPE-PEG was mixed together at a molar ratio of 51:29:16.5:3.5, and subsequently diluted with ethanol to get a total lipid concentration of 10 mg/ml. This lipid mixture was heated at 55-60 degree Centigrade using the heating block attachment in the microfluidizer. Similarly, the aqueous phase containing 1 mM PBS buffer was also preheated at 55-60 degree centigrade before passing through the microfluidics cartridge at the flow rate of 5:1 (aqueous:organic phase, lipid mixture). The solvent was removed using dialysis membrane of cut off 12 KDa size (Sigma Aldrich) against DI water for at least 24 hrs. The Dialysis water was changed at least 5 times during the period of 24 hrs. to maximize the removal of the solvent. After the removal of the solvent, the LNP-TB4 was concentrated according to the need using Amicon centrifugal filtration device (cut off size 10 KDa, at 3000 g).
In another experiment, a liposome comprising the TB4 prodrug (denoted LNP-TB4) was co-formulated with ID3 and synthesized in the following manner. […]

CCCCCCCCCCCCCCCCCC(=O)OCOC(=O)N(C(=O)c1ccc(-c2cc(-c3c[nH]nc3-c3ccccn3)ccn2)cc1)C1CCOCC1 [TB4 prodrug]
solubility in ethanol (in words): not soluble in ethanol
